Patent US10383859B2, “Benzo[d]thiazole derivative or salt thereof, and pharmaceutical composition including same” (Yuhan Corporation, priority 2016, dated 2019)

Each compound was assayed on A549 cells (assay: Cell migration assay (24-well transwell, laminin)). Conditions: Homo sapiens, A549, 6 h, laminin 10 μg/mL in lower well, test compounds 0.39˜100 μM, migrated cells counted, read-out: Inhibitory activity against cell migration.
Type: cell-based, human
Outline: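 Serum-free RPMI1640 transwell (8.0 μm pore) with laminin (10 μg/mL) in lower well; A549 cells (1×10^6 cells/mL) and compounds (0.39–100 μM) in both chambers, 6 h at 37 °C. Hematoxylin-stained cells on membrane underside counted at three fields (×20); IC50 by non-linear regression.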

| SMILES | IC50 [µM] |
| --- | --- |
| COc1ccc(CCN(Cc2ccc(C(=O)O)cc2)c2nc3ccc(C(=O)O)cc3s2)cc1 [Example 117, 2-{(4-carboxybenzyl)[2-(4-methoxyphenyl)ethyl]amino}benzo[d]thiazole-6-carboxylic acid] | > 10 |
| COc1ccc(CCN(Cc2ccc(C(=O)O)cc2)c2nc3c(F)cc(F)cc3s2)cc1 [Example 95, 4-({(4,6-difluorobenzo[d]thiazol-2-yl)[2-(4-methoxyphenyl)ethyl]amino}methyl)benzoic acid] | < 1 |
| CC(c1ccc(C(=O)O)cc1)N(CCc1cccc(F)c1F)c1nc2cccc(F)c2s1 (stereo not shown) [Example 57, 4-(1-{[2-(2,3-difluorophenyl)ethyl](7-fluorobenzo[d]thiazol-2-yl)amino}ethyl)benzoic acid] | > 10 |
| CCC(c1ccc(C(=O)O)cc1)N(CCc1cc(F)c(OC)cc1F)c1nc2cccc(F)c2s1 (stereo not shown) [Example 69, 4-(1-{[2-(2,5-difluoro-4-methoxyphenyl)ethyl](7-fluorobenzo[d]thiazol-2-yl)amino}propyl)benzoic acid] | > 10 |
| COc1ccc(CCN(Cc2ccc(C(=O)O)cc2)c2nc3cccc(F)c3s2)c(Cl)c1 [Example 46, 4-({[2-(2-chloro-4-methoxyphenyl)ethyl](7-fluorobenzo[d]thiazol-2-yl)amino}methyl)benzoic acid] | > 10 |
| COc1ccc(OC)c(CCN(Cc2ccc(C(=O)O)cc2)c2nc3cccc(F)c3s2)c1 [Example 14, 4-({[2-(2,5-dimethoxyphenyl)ethyl](7-fluorobenzo[d]thiazol-2-yl)amino}methyl)benzoic acid] | > 10 |
| O=C(O)c1ccc(CN(CCc2ccc(OCC3CCCCC3)cc2)c2nc3cccc(F)c3s2)cc1 [Example 23, 4-{[[2-(4-cyclohexylmethoxyphenyl)ethyl]-(7-fluorobenzo[d]thiazol-2-yl)amino]methyl}benzoic acid] | > 10 |
| COc1ccc(CCN(c2nc3ccc(F)c(F)c3s2)C(C)c2ccc(C(=O)O)cc2)cc1 (stereo not shown) [Example 104, 4-(1-{(6,7-difluorobenzo[d]thiazol-2-yl)[2-(4-methoxyphenyl)ethyl]amino}ethyl)benzoic acid] | > 10 |
| CSc1ccc(CCN(Cc2ccc(C(=O)O)cc2)c2nc3cccc(F)c3s2)cc1 [Example 12, 4-{[(7-fluorobenzo[d]thiazol-2-yl){2-[4-(methylsulfanyl)phenyl]ethyl}amino]methyl}benzoic acid] | < 1 |
| O=C(O)c1ccc(CN(CCc2ccc(OCC3CCC3)cc2)c2nc3cccc(F)c3s2)cc1 [Example 24, 4-{[[2-(4-cyclobutylmethoxyphenyl)ethyl]-(7-fluorobenzo[d]thiazol-2-yl)amino]methyl}benzoic acid] | 1 to 10 |
| COc1ccc(CCN(Cc2ccc(C(=O)O)cc2)c2nc3cccc(F)c3s2)c(C)c1C [Example 47, 4-({(7-fluorobenzo[d]thiazol-2-yl)[2-(4-methoxy-2,3-dimethylphenyl)ethyl]amino}methyl)benzoic acid] | > 10 |
| O=C(O)c1ccc(CN(CCc2ccccc2)c2nc3cccc(F)c3s2)cc1 [Example 22, 4-{[(7-fluorobenzo[d]thiazol-2-yl)(2-phenylethyl)amino]methyl}benzoic acid] | 1 to 10 |
| O=C(O)c1ccc(CN(CCc2ccc(OCC3CC3)cc2)c2nc3cccc(F)c3s2)cc1 [Example 19, 4-{[[2-(4-cyclopropylmethoxyphenyl)ethyl](7-fluorobenzo[d]thiazol-2-yl)amino]methyl}benzoic acid] | < 1 |
| COc1ccc(CCN(Cc2ccc(C(=O)O)cc2)c2nc3cccc(C(=O)O)c3s2)cc1 [Example 118, 2-{(4-carboxybenzyl)[2-(4-methoxyphenyl)ethyl]amino}benzo[d]thiazole-7-carboxylic acid] | > 10 |
| CNc1ccc(CCN(Cc2ccc(C(=O)O)cc2)c2nc3cccc(F)c3s2)cc1 [Example 20, 4-{[(7-fluorobenzo[d]thiazol-2-yl){2-[4-(methylamino)phenyl]ethyl}amino]methyl}benzoic acid] | < 1 |
| CC(C)Oc1ccc(CCN(Cc2ccc(C(=O)O)cc2)c2nc3cccc(F)c3s2)cc1 [Example 11, 4-({(7-fluorobenzo[d]thiazol-2-yl)[2-(4-isopropoxyphenyl)ethyl]amino}methyl)benzoic acid] | 1 to 10 |
| O=C(O)c1ccc(CN(CCc2ccc(F)cc2)c2nc3cccc(F)c3s2)cc1 [Example 8, 4-({(7-fluorobenzo[d]thiazol-2-yl)[2-(4-fluorophenyl)ethyl]amino}methyl)benzoic acid] | > 10 |

Results, then the compound that gave them:

| IC50 [µM] | SMILES |
| --- | --- |
| > 10 | COc1ccc(CCN(c2nc3ccc(Cl)cc3s2)C(C)c2ccc(C(=O)O)cc2)cc1 (stereo not shown) [Example 108, 4-(1-{(6-chloro-benzo[d]thiazol-2-yl)[2-(4-methoxyphenyl)ethyl]amino}ethyl)benzoic acid] |
| < 1 | COc1ccc(CCN(Cc2ccc(C(=O)O)cc2)c2nc3cc(F)c(F)cc3s2)cc1 [Example 86, 4-({(5,6-difluorobenzo[d]thiazol-2-yl)[2-(4-methoxyphenyl)ethyl]amino}methyl)benzoic acid] |
| > 10 | COc1ccc(CCN(Cc2ccc(C(=O)O)cc2)c2nc3cc(C)ccc3s2)cc1 [Example 98, 4-({[2-(4-methoxyphenyl)ethyl](5-methyl-benzo[d]thiazol-2-yl)amino}methyl)benzoic acid] |
| < 1 | COc1ccc(CCN(Cc2ccc(C(=O)O)cc2)c2nc3ccc(Cl)cc3s2)cc1 [Example 84, 4-({(6-chloro-benzo[d]thiazol-2-yl)[2-(4-methoxyphenyl)ethyl]amino}methyl)benzoic acid] |
| > 10 | COc1ccc(CCN(Cc2ccc(C(=O)O)cc2)c2nc3cccc(C)c3s2)cc1 [Example 96, 4-({[2-(4-methoxyphenyl)ethyl](7-methyl-benzo[d]thiazol-2-yl)amino}methyl)benzoic acid] |
| > 10 | COc1ccc(CCN(c2nc3cc(F)ccc3s2)C(C)c2ccc(C(=O)O)cc2)cc1 (stereo not shown) [Example 113, 4-(1-{(5-fluorobenzo[d]thiazol-2-yl)[2-(4-methoxyphenyl)ethyl]amino}ethyl)benzoic acid] |
| < 1 | COc1ccc(CCN(Cc2ccc(C(=O)O)cc2)c2nc3cc(C(F)(F)F)ccc3s2)cc1 [Example 120, 4-({[2-(4-methoxyphenyl)ethyl][5-(trifluoromethyl)benzo[d]thiazol-2-yl]amino}methyl)benzoic acid] |
| < 1 | COc1cc(F)c(CCN(Cc2ccc(C(=O)O)cc2)c2nc3cccc(F)c3s2)cc1F [Example 45, 4-({[2-(2,5-difluoro-4-methoxyphenyl)ethyl](7-fluorobenzo[d]thiazol-2-yl)amino}methyl)benzoic acid] |
| > 10 | COc1ccc(CCN(Cc2ccc(C(=O)O)cc2)c2nc3cccc(F)c3s2)cc1Br [Example 37, 4-({[2-(3-bromo-4-methoxyphenyl)ethyl](7-fluorobenzo[d]thiazol-2-yl)amino}methyl)benzoic acid] |
| < 1 | COc1ccc(CCN(c2nc3cccc(Cl)c3s2)C(C)c2ccc(C(=O)O)cc2)cc1 (stereo not shown) [Example 109, 4-(1-{(7-chloro-benzo[d]thiazol-2-yl)[2-(4-methoxyphenyl)ethyl]amino}ethyl)benzoic acid] |
| > 10 | COc1ccc(CCN(c2nc3cc(F)c(F)c(F)c3s2)C(C)c2ccc(C(=O)O)cc2)cc1 (stereo not shown) [Example 101, 4-(1-{[2-(4-methoxyphenyl)ethyl](5,6,7-trifluorobenzo[d]thiazol-2-yl)amino}ethyl)benzoic acid] |
| > 10 | COc1ccc(CCN(c2nc3cccc(F)c3s2)C(C)c2ccc(C(=O)O)cc2)cc1F (stereo not shown) [Example 54, 4-(1-{(7-fluorobenzo[d]thiazol-2-yl)[2-(3-fluoro-4-methoxyphenyl)ethyl]amino}ethyl)benzoic acid] |
| > 10 | CCC(c1ccc(C(=O)O)cc1)N(CCc1cc(C)c(OC)cc1C)c1nc2cccc(F)c2s1 (stereo not shown) [Example 72, 4-(1-{(7-fluorobenzo[d]thiazol-2-yl)[2-(4-methoxy-2,5-dimethylphenyl)ethyl]amino}propyl)benzoic acid] |
| > 10 | COc1cc(C)c(CCN(c2nc3cccc(F)c3s2)C(C)c2ccc(C(=O)O)cc2)cc1C(C)C (stereo not shown) [Example 62, 4-{1-[(7-fluorobenzo[d]thiazol-2-yl){2-[4-methoxy-2-methyl-5-(propan-2-yl)phenyl]ethyl}amino]ethyl}benzoic acid] |
| > 10 | O=C(O)c1ccc(CN(CCc2cccc(F)c2F)c2nc3cccc(F)c3s2)cc1 [Example 34, 4-({[2-(2,3-difluorophenyl)ethyl](7-fluorobenzo[d]thiazol-2-yl)amino}methyl)benzoic acid] |
| < 1 | CCOc1ccc(CCN(Cc2ccc(C(=O)O)cc2)c2nc3cccc(F)c3s2)cc1 [Example 9, 4-{[[2-(4-ethoxyphenyl)ethyl](7-fluorobenzo[d]thiazol-2-yl)amino]methyl}benzoic acid] |
| > 10 | O=C(O)c1ccc(CN(CCc2ccc(Cl)cc2Cl)c2nc3cccc(F)c3s2)cc1 [Example 38, 4-({[2-(2,4-dichlorophenyl)ethyl](7-fluorobenzo[d]thiazol-2-yl)amino}methyl)benzoic acid] |
| > 10 | COc1ccc(CCN(Cc2ccc(C(=O)O)cc2)c2nc3ccc(Br)cc3s2)cc1 [Example 115, 4-({(6-bromo-benzo[d]thiazol-2-yl)[2-(4-methoxyphenyl)ethyl]amino}methyl)benzoic acid] |
| < 1 | COc1cc(F)c(CCN(c2nc3cccc(F)c3s2)C(C)c2ccc(C(=O)O)cc2)c(F)c1 (stereo not shown) [Example 67, 4-(1-{[2-(2,6-difluoro-4-methoxyphenyl)ethyl](7-fluorobenzo[d]thiazol-2-yl)amino}ethyl)benzoic acid] |
| < 1 | COc1ccc(CCN(Cc2ccc(C(=O)O)cc2)c2nc3cccc(F)c3s2)cc1C [Example 49, 4-({(7-fluorobenzo[d]thiazol-2-yl)[2-(4-methoxy-3-methylphenyl)ethyl]amino}methyl)benzoic acid] |
